IC50 data for 15 compounds are collected here from patent US11702422B2, “Imidazopyridazines as modulators of IL-17” (Janssen Pharmaceutica NV, priority 2020, dated 2023).

Test [1] deals with IL-17A(FLAG-Tagged): IL-17RA(His-Tagged) (Homo sapiens, UniProt Q16552, K93Q). The test can be described thus: IL-17A(FLAG-Tagged): IL-17RA(His-Tagged) Binding Disruption Eu-HTRF Assay. Particulars: IL-17A/IL-17RA binding disruption, simple average if tested more than once. Summed up: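 IC50 comes from a one-site competition fit of the HTRF 665/620 nm ratio. Compound dilutions (2-fold, 22 points) were held 1 h rt with FLAG-tagged IL-17A dimer, then His-tagged IL-17RA plus Eu-cryptate anti-FLAG and D2 anti-His antibodies were added for 2 h rt.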
UniProt Q16552, sequence (Q16552 with tags, fused parts or gaps K93Q): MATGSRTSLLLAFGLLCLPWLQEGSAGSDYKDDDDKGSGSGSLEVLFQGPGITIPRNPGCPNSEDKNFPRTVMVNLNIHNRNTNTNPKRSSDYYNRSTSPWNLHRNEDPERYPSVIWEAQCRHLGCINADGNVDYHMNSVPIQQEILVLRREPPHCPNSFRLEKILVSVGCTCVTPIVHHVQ
A general note: Time-resolved FRET reads energy transfer from a long-lived donor to a nearby acceptor.

Test [2] deals with IL-17A-induced G-CSF production in human normal keratinocyte (NHK). Briefly: NHK Assay: IL-17A-induced G-CSF production in human normal keratinocytes. In kind it is cell-based. Particulars: Homo sapiens, Keratinocyte, 24 h, adult normal human keratinocytes, IL-17A 5 ng/mL, simple average if tested more than once. Summed up:
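Titrated compound plus recombinant human IL-17A (pre-incubated 1 h, rt) were applied to adult human keratinocytes at 5 ng/mL cytokine, 0.2% DMSO. Cultures ran 24 h at 37° C, and supernatant G-CSF was measured by HTRF to derive IC50.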

Molecules are shown by their SMILES.

Regarding `O=C(CCC(F)(F)F)N[C@@H](c1cnn2cc([C@@H](NC(=O)c3ccnn3C(F)(F)F)C3CCC(F)(F)CC3)nc2c1)C1CC1` [Example 104, N—((S)-(7-((R)-Cyclopropyl(4,4,4-trifluorobutanamido)methyl)imidazo[1,2-b]pyridazin-2-yl)(4,4-difluorocyclohexyl)methyl)-1-(trifluoromethyl)-1H-pyrazole-5-carboxamide], the values for the IC50 in test [1] and in test [2] were 90 nM and 550 nM, respectively.

`O=C(CCC(F)(F)F)N[C@@H](c1cnn2cc([C@@H](NC(=O)c3cnnn3CCF)C3CCC(F)(F)CC3)nc2c1)C1CC1` [Example 105, N—((S)-(7-((R)-Cyclopropyl(4,4,4-trifluorobutanamido)methyl)imidazo[1,2-b]pyridazin-2-yl)(4,4-difluorocyclohexyl)methyl)-1-(2-fluoroethyl)-1H-1,2,3-triazole-5-carboxamide]: the results for the IC50 in test [1] and in test [2] were 110 nM and 550 nM, respectively.

For the compound `CCn1ncnc1C(=O)N[C@H](c1cn2ncc([C@H](NC(=O)CCC(F)(F)F)C3CC3)cc2n1)C1CCC(F)(F)CC1` [Example 106, N—((S)-(7-((R)-Cyclopropyl(4,4,4-trifluorobutanamido)methyl)imidazo[1,2-b]pyridazin-2-yl)(4,4-difluorocyclohexyl)methyl)-1-ethyl-1H-1,2,4-triazole-5-carboxamide], the IC50 (as a rule, the concentration that inhibits the measured activity by half) in test [1] turned out to be 130 nM; in test [2] it was 830 nM.

For `O=C(CCC(F)(F)F)N[C@@H](c1cnn2cc([C@@H](NC(=O)c3cnn(CCF)n3)C3CCC(F)(F)CC3)nc2c1)C1CC1` [Example 107, N—((S)-(7-((R)-Cyclopropyl(4,4,4-trifluorobutanamido)methyl)imidazo[1,2-b]pyridazin-2-yl)(4,4-difluorocyclohexyl)methyl)-2-(2-fluoroethyl)-2H-1,2,3-triazole-4-carboxamide], the IC50 stood at 150 nM in test [1] and 970 nM in test [2].

Take `O=C(CCC(F)(F)F)N[C@@H](c1cnn2cc([C@@H](NC(=O)c3nnn(CC4CC4)c3C(F)(F)F)C3CCC(F)(F)CC3)nc2c1)C1CC1` [Example 108, N—((S)-(7-((R)-Cyclopropyl(4,4,4-trifluorobutanamido)methyl)imidazo[1,2-b]pyridazin-2-yl)(4,4-difluorocyclohexyl)methyl)-1-(cyclopropylmethyl)-5-(trifluoromethyl)-1H-1,2,3-triazole-4-carboxamide]: the IC50 in test [1] was 910 nM; in test [2], above 20000 nM.

In the case of `O=C(CCC(F)(F)F)N[C@@H](c1cnn2cc([C@@H](NC(=O)c3nnn(CC(F)F)c3C(F)(F)F)C3CCC(F)(F)CC3)nc2c1)C1CC1` [Example 109, N—((S)-(7-((R)-Cyclopropyl(4,4,4-trifluorobutanamido)methyl)imidazo[1,2-b]pyridazin-2-yl)(4,4-difluorocyclohexyl)methyl)-1-(2,2-difluoroethyl)-5-(trifluoromethyl)-1H-1,2,3-triazole-4-carboxamide], the figures for the IC50 in test [1] and in test [2] were 440 nM and 20000 nM, respectively.

Take `O=C(CCC(F)(F)F)N[C@@H](c1cnn2cc([C@@H](NC(=O)c3nnn(C4CC4)c3C(F)F)C3CCC(F)(F)CC3)nc2c1)C1CC1` [Example 110, 1-Cyclopropyl-N—((S)-(7-((R)-cyclopropyl(4,4,4-trifluorobutanamido)methyl)imidazo[1,2-b]pyridazin-2-yl)(4,4-difluorocyclohexyl)methyl)-5-(difluoromethyl)-1H-1,2,3-triazole-4-carboxamide]: the IC50 was 410 nM in test [1] and above 20000 nM in test [2].

As for `CC(C)n1ncc(F)c1C(=O)N[C@H](c1cn2ncc([C@H](NC(=O)CCC(F)(F)F)C3CC3)cc2n1)C1CCC(F)(F)CC1` [Example 111, N—((S)-(7-((R)-Cyclopropyl(4,4,4-trifluorobutanamido)methyl)imidazo[1,2-b]pyridazin-2-yl)(4,4-difluorocyclohexyl)methyl)-4-fluoro-1-isopropyl-1H-pyrazole-5-carboxamide], the IC50 in test [1] was 52 nM; in test [2], 410 nM.

`O=C(CCC(F)(F)F)N[C@@H](c1cnn2cc([C@@H](NC(=O)c3cnnn3CCCF)C3CCC(F)(F)CC3)nc2c1)C1CC1` [Example 112, N—((S)-(7-((R)-Cyclopropyl(4,4,4-trifluorobutanamido)methyl)imidazo[1,2-b]pyridazin-2-yl)(4,4-difluorocyclohexyl)methyl)-1-(3-fluoropropyl)-1H-1,2,3-triazole-5-carboxamide]: the IC50 in test [1] was determined as 120 nM; in test [2] it was 160 nM.

Consider `O=C(CCC(F)(F)F)N[C@@H](c1cnn2cc([C@@H](NC(=O)c3cnn(CCCF)n3)C3CCC(F)(F)CC3)nc2c1)C1CC1` [Example 113, N—((S)-(7-((R)-Cyclopropyl(4,4,4-trifluorobutanamido)methyl)imidazo[1,2-b]pyridazin-2-yl)(4,4-difluorocyclohexyl)methyl)-2-(3-fluoropropyl)-2H-1,2,3-triazole-4-carboxamide], for which the IC50 turned out to be 430 nM in test [1] and 400 nM in test [2].

On to `CC(=O)N(C)CCn1ncc(C(=O)N[C@H](c2cn3ncc([C@H](NC(=O)CCC(F)(F)F)C4CC4)cc3n2)C2CCC(F)(F)CC2)n1` [Example 114, N—((S)-(7-((R)-Cyclopropyl(4,4,4-trifluorobutanamido)methyl)imidazo[1,2-b]pyridazin-2-yl)(4,4-difluorocyclohexyl)methyl)-2-(2-(N-methylacetamido)ethyl)-2H-1,2,3-triazole-4-carboxamide], for which the 50% inhibitory concentration (IC50) in test [1] was determined as 2100 nM; in test [2], 370 nM.

Turning to `CC(C)n1nccc1C(=O)N[C@H](c1nc2cc([C@H](NC(=O)CCC(F)(F)F)C3CC3)cnn2c1F)C1CCC(F)(F)CC1` [Example 118, N—((S)-(7-((R)-Cyclopropyl(4,4,4-trifluorobutanamido)methyl)-3-fluoroimidazo[1,2-b]pyridazin-2-yl)(4,4-difluorocyclohexyl)methyl)-1-isopropyl-1H-pyrazole-5-carboxamide], the IC50 in test [1] was 250 nM; in test [2], 370 nM.

With `CC(C)n1nccc1C(=O)N[C@H](c1cn2ncc([C@H](NC(=O)CC3CC(F)(F)C3)C3CC3)cc2n1)C1CCC(F)(F)CC1` [Example 119, N—((S)-(7-((R)-Cyclopropyl(2-(3,3-difluorocyclobutyl)acetamido)methyl)imidazo[1,2-b]pyridazin-2-yl)(4,4-difluorocyclohexyl)methyl)-1-isopropyl-1H-pyrazole-5-carboxamide], the values for the IC50 in test [1] and in test [2] were 96 nM and 36 nM, respectively.

With `Cc1nocc1C(=O)N[C@H](c1cn2ncc([C@H](NC(=O)CC3CC(F)(F)C3)C3CC3)cc2n1)C1CCC(F)(F)CC1` [Example 120, N—((S)-(7-((R)-Cyclopropyl(2-(3,3-difluorocyclobutyl)acetamido)methyl)imidazo[1,2-b]pyridazin-2-yl)(4,4-difluorocyclohexyl)methyl)-3-methylisoxazole-4-carboxamide], the IC50 in test [1] stood at 48 nM; in test [2] it was 150 nM.

As for `O=C(CC1CC(F)(F)C1)N[C@@H](c1cnn2cc([C@@H](NC(=O)c3conc3C3CC3)C3CCC(F)(F)CC3)nc2c1)C1CC1` [Example 125, 3-Cyclopropyl-N—((S)-(7-((R)-cyclopropyl(2-(3,3-difluorocyclobutyl)acetamido)methyl)imidazo[1,2-b]pyridazin-2-yl)(4,4-difluorocyclohexyl)methyl)isoxazole-4-carboxamide], the IC50 was determined as 37 nM in test [1] and 78 nM in test [2].
